Laboratory results as given in patent publication US6793925B2 (priority 1999, dated 2004).
Converted amounts (≈) assume the structure as drawn. Bridge positions count the residues as written; N and C are the ends. Square brackets hold non-standard residues; d marks the D form. Peptide text beside a SMILES is read from it. * marks the point of attachment. Asp(3S-OH) = N[C@H](C(=O)O)[C@H](O)C(=O)O; Thr(4-Cl) = N[C@H](C(=O)O)[C@H](O)CCl; X1 = CCCCCCCCCCCC(O)C(O)CC(=O)*; aThr = C[C@H](O)[C@H](N)C(=O)O; X2 = CCCCCCCCCC(O)CC(=O)*; dDab = NCC[C@@H](N)C(=O)O; Dab = NCC[C@H](N)C(=O)O; Dhb = C/C=C(\N)C(=O)O

Assays:
Assay type in all cases: cell-based
Details in all cases: complete inhibition of growth, Sabourauds and dextrose broth, 35° C., 48 hr, highest concentration 20 μg/ml
[1] = system: Aspergillus fumigatus; assay: microtiter broth dilution antifungal assay (MIC)
Procedure: (§1) The presence or amount of a pseudomycin or mixture of pseudomycins can be determined by measuring the antifungal activity of a preparation. Antifungal activity was determined in vitro by obtaining the minimum inhibitory concentration (MIC) of the preparation using a standard agar dilution test or a disc-diffusion test. A preparation of one or more pseudomycins can be an extract of a cell culture, or a more purified mixture. A typical fungus employed in testing antifungal activity is C. albicans. Antifungal activity was considered significant when the test preparation caused 10-12 mm diameter zones of inhibition on Candida albicans x657 seeded agar plates.
(§2) The antifungal studies were conducted using a microtiter broth dilution assay according to National Committee for Clinical Laboratory Standards guidelines in 96 well microtiter plates. Sabourauds and dextrose broth was adjusted to contain 2.5×10^4 conida/ml. Test compound was dissolved in water and tested in two-fold dilutions starting with the highest concentration of 20 μg/ml. Plates were incubated at 35° C. for 48 hr.

[2] = system: C. parapsilosis; assay: microtiter broth dilution antifungal assay (MIC)
Procedure: as §1, §2

[3] = system: Candida albicans; assay: microtiter broth dilution antifungal assay (MIC)
Procedure: as §1, §2

[4] = system: Cryptococcus neoformans; assay: microtiter broth dilution antifungal assay (MIC)
Procedure: as §1, §2

[5] = system: Histoplasma capsulatum

## C/C=C1\NC(=O)[C@H]([C@H](C)O)NC(=O)[C@H](CCN)NC(=O)[C@H](CCCCN)NC(=O)[C@H](CC(=O)O)NC(=O)[C@@H](CCN)NC(=O)[C@@H](NC(=O)CC(O)C(O)CCCCCCCCCCC)COC(=O)[C@H]([C@H](O)CCl)NC(=O)[C@H]([C@H](O)C(=O)O)NC1=O (stereo partly drawn) [Pseudomycin A′, pseudomycin A′] (X1-S[dDab]DK[Dab][aThr][Dhb][Asp(3S-OH)][Thr(4-Cl)]; ester 1-C)
[1]
  MIC: >20 µg/mL
[2]
  MIC: 5.0 µg/mL (≈ 4.04 µM)
[3]
  MIC: 2.5 µg/mL (≈ 2.02 µM)
[4]
  MIC: 1.25 µg/mL (≈ 1.01 µM)
[5]
  MIC: 5.0 µg/mL (≈ 4.04 µM)

## C/C=C1\NC(=O)[C@H]([C@H](C)O)NC(=O)[C@H](CCN)NC(=O)[C@H](CCCCN)NC(=O)[C@H](CC(=O)O)NC(=O)[C@@H](CCN)NC(=O)[C@@H](NC(=O)CC(O)CCCCCCCCC)COC(=O)[C@H]([C@H](O)CCl)NC(=O)[C@H]([C@H](O)C(=O)O)NC1=O (stereo partly drawn) [Pseudomycin B′, pseudomycin B′] (X2-S[dDab]DK[Dab][aThr][Dhb][Asp(3S-OH)][Thr(4-Cl)]; ester 1-C)
[1]
  MIC: >20 µg/mL
[2]
  MIC: 10 µg/mL (≈ 8.48 µM)
[3]
  MIC: 10 µg/mL (≈ 8.48 µM)
[4]
  MIC: 1.25 µg/mL (≈ 1.06 µM)
[5]
  MIC: 1.25-5.0 μ/ml
